# Measurements: ChEMBL document CHEMBL4190187, “Discovery of pyrazolopyrimidine derivatives as novel inhibitors of ataxia telangiectasia and rad3 related protein (ATR)” (Bioorg Med Chem Lett, 2017)
# Assays:
# [1] = test system: Epidermal growth factor receptor (Homo sapiens), P00533 [L858R]; assay: Inhibition of recombinant human EGFR L858R mutant (696 to end residues) at 1 uM using poly(Glu,Tyr) 4:1 as substrate after 40 mins in presence of [gamma-33P]ATP by scintillation counting method
# [2] = biological target: Mitogen-activated protein kinase kinase kinase 20 (Homo sapiens) (UniProt Q9NYL2); assay: Inhibition of recombinant full-length human ZAK at 1 uM using myelin basic protein as substrate after 40 mins in presence of [gamma-33P]ATP by scintillation counting method
# [3] = biological target: Bone morphogenetic protein receptor type-1B (Homo sapiens) (UniProt O00238); assay: Inhibition of recombinant human ALK6 (148 to end residues) at 1 uM using casein as substrate after 40 mins in presence of [gamma-33P]ATP by scintillation counting method
# [4] = biological target: Serine/threonine-protein kinase Sgk3 (Homo sapiens) (UniProt Q96BR1); assay: Inhibition of recombinant human SGK3 (119 to end residues) at 1 uM using GRPRTSSFAEGKK as substrate after 40 mins in presence of [gamma-33P]ATP by scintillation counting method
# [5] = test system: Receptor-type tyrosine-protein kinase FLT3 (Homo sapiens), P36888 [D835Y]; assay: Inhibition of recombinant human Flt3 D835Y mutant (564 to end residues) at 1 uM using EAIYAAPFAKKK as substrate after 40 mins in presence of [gamma-33P]ATP by scintillation counting method
# [6] = biological target: Insulin receptor (Homo sapiens) (UniProt P06213); assay: Inhibition of recombinant human activated IR (1005 to 1310 residues) at 1 uM using KKKSPGEYVNIEFG as substrate after 40 mins in presence of [gamma-33P]ATP by scintillation counting method
# [7] = biological target: Serine/threonine-protein kinase ICK (Homo sapiens) (UniProt Q9UPZ9); assay: Inhibition of recombinant human ICK (1 to 312 residues) at 1 uM using RRRFRPASPLRGPPK as substrate after 120 mins in presence of [gamma-33P]ATP by scintillation counting method
# [8] = biological target: Tyrosine-protein kinase Fyn (Homo sapiens) (UniProt P06241); assay: Inhibition of recombinant full-length human Fyn at 1 uM using KVEKIGEGTYGVVYK as substrate after 40 mins in presence of [gamma-33P]ATP by scintillation counting method
# [9] = biological target: CDK7/Cyclin H/MNAT1 (Homo sapiens) (UniProt P51946+P50613+P51948); assay: Inhibition of recombinant full-length human CDK7/CyclinH/MAT1 at 1 uM using peptide as substrate after 40 mins in presence of [gamma-33P]ATP by scintillation counting method; format: protein-complex assay
# [10] = biological target: Vascular endothelial growth factor receptor 2 (Homo sapiens) (UniProt P35968); assay: Inhibition of recombinant human KDR (790 to end residues) at 1 uM using myelin basic protein as substrate after 40 mins in presence of [gamma-33P]ATP by scintillation counting method
# [11] = biological target: cGMP-dependent protein kinase 1 (Homo sapiens) (UniProt Q13976); assay: Inhibition of recombinant full-length human PKG1alpha at 1 uM using RRRLSFAEPG as substrate after 40 mins in presence of [gamma-33P]ATP by scintillation counting method
# [12] = test system: Epidermal growth factor receptor (Homo sapiens), P00533 [T790M]; assay: Inhibition of recombinant human EGFR T790M mutant (696 to end residues) at 1 uM using GGMEDIYFEFMGGKKK as substrate after 40 mins in presence of [gamma-33P]ATP by scintillation counting method
# [13] = biological target: FKBP12A/mTOR (Homo sapiens) (UniProt P62942+P42345); assay: Inhibition of recombinant full-length human mTOR/FKBP12 at 1 uM after 40 mins in presence of [gamma-33P]ATP by scintillation counting method; format: protein-complex assay
# [14] = biological target: Mitogen-activated protein kinase kinase kinase kinase 5 (Homo sapiens) (UniProt Q9Y4K4); assay: Inhibition of recombinant full-length human MAP4K5 at 1 uM using myelin basic protein as substrate after 40 mins in presence of [gamma-33P]ATP by scintillation counting method
# [15] = biological target: Serine/threonine-protein kinase 17A (Homo sapiens) (UniProt Q9UEE5); assay: Inhibition of recombinant full-length human DRAK1 at 1 uM using KKLNRTLSFAEPG as substrate after 40 mins in presence of [gamma-33P]ATP by scintillation counting method
# [16] = biological target: Serine/threonine-protein kinase mTOR (Homo sapiens) (UniProt P42345); assay: Inhibition of recombinant full-length human mTOR at 1 uM after 40 mins in presence of [gamma-33P]ATP by scintillation counting method
# [17] = biological target: Tyrosine-protein kinase JAK2 (Homo sapiens) (UniProt O60674); assay: Inhibition of recombinant human JAK2 (808 to end residues) at 1 uM using KTFCGTPEYLAPEVRREPRILSEEEQEMFRDFDYIADWC as substrate after 40 mins in presence of [gamma-33P]ATP by scintillation counting method
# Mus musculus = assay: AUC in mouse at 10 mg/kg, po; format: ADME, organism-based; settings: in vivo
# [18] = biological target: Mitogen-activated protein kinase 11 (Homo sapiens) (UniProt Q15759); assay: Inhibition of recombinant full-length human SAPK2b at 1 uM using myelin basic protein as substrate after 40 mins in presence of [gamma-33P]ATP by scintillation counting method
# [19] = biological target: Mitogen-activated protein kinase kinase kinase 9 (Homo sapiens) (UniProt P80192); assay: Inhibition of recombinant human MLK1 (134 to 414 residues) at 1 uM using casein as substrate after 40 mins in presence of [gamma-33P]ATP by scintillation counting method
# [20] = biological target: Tyrosine-protein kinase Blk (Homo sapiens) (UniProt P51451); assay: Inhibition of recombinant full-length human Blk at 1 uM using poly(Glu,Tyr) 4:1 as substrate after 40 mins in presence of [gamma-33P]ATP by scintillation counting method
# [21] = Metabolic stability in human liver microsomes assessed as compound remaining at 1 uM in presence of NADPH as cofactor measured after 30 mins by LC-MS/MS method; format: ADME, microsome; settings: read-out: Stability
# [22] = biological target: Serine/threonine-protein kinase Nek1 (Homo sapiens) (UniProt Q96PY6); assay: Inhibition of recombinant human NEK1 (1 to 505 residues) at 1 uM using RLGRDKYKTLRQIRQ as substrate after 40 mins in presence of [gamma-33P]ATP by scintillation counting method
# [23] = biological target: Ephrin type-B receptor 4 (Homo sapiens) (UniProt P54760); assay: Inhibition of recombinant human EPHB4 (561 to end residues) at 1 uM using poly(Glu,Tyr) 4:1 as substrate after 40 mins in presence of [gamma-33P]ATP by scintillation counting method
# [24] = biological target: Leukocyte tyrosine kinase receptor (Homo sapiens) (UniProt P29376); assay: Inhibition of recombinant human LTK (450 to end residues) at 1 uM using GEEPLYWSFPAKKK as substrate after 40 mins in presence of [gamma-33P]ATP by scintillation counting method
# Chain of Epidermal growth factor receptor (Homo sapiens), P00533 [T790M] (P00533 whole entry T790M): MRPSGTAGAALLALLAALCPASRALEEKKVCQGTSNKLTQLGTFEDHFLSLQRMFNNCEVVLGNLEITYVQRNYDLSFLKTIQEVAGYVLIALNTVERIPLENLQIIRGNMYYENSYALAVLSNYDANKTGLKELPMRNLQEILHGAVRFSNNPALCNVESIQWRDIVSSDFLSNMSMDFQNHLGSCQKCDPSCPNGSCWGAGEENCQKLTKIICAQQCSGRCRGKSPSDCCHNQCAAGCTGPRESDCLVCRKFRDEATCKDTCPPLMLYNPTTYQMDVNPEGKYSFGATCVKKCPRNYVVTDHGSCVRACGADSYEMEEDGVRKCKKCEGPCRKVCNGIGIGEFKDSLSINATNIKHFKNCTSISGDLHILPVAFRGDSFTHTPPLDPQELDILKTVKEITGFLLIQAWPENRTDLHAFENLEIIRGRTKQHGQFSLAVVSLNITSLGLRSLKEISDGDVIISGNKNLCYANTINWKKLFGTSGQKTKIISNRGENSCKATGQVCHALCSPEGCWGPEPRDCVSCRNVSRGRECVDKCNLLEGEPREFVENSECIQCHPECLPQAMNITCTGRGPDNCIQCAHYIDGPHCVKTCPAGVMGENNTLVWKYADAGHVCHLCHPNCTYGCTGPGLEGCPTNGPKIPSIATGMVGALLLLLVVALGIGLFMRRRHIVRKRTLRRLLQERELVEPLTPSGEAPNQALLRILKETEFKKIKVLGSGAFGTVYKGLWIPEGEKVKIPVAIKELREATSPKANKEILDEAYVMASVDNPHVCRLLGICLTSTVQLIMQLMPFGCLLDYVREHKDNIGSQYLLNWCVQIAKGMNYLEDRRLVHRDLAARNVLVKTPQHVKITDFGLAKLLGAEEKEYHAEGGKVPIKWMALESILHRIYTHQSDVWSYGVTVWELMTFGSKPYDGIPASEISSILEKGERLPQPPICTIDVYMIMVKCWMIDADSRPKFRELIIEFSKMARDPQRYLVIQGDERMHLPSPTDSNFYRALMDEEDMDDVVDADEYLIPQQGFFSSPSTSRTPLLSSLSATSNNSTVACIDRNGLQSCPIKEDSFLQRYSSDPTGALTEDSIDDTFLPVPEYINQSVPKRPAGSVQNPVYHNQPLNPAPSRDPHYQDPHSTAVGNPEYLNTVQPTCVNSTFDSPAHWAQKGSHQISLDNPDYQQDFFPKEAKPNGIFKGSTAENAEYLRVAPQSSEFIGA
# Chain of Vascular endothelial growth factor receptor 2 (Homo sapiens) (P35968 whole entry): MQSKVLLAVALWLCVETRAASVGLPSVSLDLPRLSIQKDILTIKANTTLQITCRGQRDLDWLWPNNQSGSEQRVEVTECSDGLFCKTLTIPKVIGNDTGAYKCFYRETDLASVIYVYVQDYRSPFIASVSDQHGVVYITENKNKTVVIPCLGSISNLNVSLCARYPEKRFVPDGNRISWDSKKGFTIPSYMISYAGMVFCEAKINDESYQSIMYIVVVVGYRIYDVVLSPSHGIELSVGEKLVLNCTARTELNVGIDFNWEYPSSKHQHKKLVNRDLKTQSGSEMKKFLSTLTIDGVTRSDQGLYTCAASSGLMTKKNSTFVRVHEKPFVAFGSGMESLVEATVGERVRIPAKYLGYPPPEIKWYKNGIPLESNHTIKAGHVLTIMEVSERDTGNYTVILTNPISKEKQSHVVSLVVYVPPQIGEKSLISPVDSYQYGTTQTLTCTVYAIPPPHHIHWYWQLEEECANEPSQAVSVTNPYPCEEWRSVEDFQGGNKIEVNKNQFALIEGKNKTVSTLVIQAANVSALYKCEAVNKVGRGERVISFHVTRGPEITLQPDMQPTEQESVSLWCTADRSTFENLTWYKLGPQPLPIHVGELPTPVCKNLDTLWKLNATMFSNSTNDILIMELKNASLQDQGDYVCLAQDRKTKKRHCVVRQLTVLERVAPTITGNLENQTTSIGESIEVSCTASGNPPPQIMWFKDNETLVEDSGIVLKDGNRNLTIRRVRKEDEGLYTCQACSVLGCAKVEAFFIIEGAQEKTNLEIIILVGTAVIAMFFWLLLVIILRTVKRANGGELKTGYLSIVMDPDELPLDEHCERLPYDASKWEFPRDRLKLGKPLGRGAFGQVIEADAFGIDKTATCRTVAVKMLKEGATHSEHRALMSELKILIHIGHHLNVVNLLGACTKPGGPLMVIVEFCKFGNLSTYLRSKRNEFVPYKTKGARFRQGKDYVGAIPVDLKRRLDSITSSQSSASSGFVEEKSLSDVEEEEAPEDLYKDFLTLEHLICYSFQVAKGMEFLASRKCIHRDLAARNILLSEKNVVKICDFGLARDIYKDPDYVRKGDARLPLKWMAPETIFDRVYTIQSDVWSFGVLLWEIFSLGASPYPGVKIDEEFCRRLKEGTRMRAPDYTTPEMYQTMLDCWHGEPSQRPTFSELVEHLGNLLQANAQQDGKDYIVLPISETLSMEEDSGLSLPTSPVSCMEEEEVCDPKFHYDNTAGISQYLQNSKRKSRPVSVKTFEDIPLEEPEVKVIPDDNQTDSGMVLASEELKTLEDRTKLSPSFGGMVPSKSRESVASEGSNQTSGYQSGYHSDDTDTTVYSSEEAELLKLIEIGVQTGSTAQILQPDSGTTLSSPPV
# Chain of Insulin receptor (Homo sapiens) (P06213 28-758 limits assumed): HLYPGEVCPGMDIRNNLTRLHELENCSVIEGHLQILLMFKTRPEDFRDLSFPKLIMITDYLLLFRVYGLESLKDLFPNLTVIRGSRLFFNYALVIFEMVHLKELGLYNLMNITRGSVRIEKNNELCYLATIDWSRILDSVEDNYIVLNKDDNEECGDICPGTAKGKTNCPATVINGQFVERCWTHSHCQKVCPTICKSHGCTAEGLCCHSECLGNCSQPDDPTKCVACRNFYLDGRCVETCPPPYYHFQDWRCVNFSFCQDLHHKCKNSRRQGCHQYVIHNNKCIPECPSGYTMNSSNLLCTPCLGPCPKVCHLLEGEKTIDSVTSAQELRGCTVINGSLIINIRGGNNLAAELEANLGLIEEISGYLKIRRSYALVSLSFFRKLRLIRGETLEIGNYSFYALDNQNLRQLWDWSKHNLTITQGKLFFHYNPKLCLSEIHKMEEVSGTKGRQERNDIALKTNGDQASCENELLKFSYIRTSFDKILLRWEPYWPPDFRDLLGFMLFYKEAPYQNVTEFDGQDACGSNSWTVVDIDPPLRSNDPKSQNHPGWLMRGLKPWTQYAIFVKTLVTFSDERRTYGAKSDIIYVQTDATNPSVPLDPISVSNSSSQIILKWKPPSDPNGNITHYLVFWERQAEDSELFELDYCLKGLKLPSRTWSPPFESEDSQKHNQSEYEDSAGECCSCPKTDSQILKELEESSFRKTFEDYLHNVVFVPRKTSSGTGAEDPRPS
# Chain of Insulin receptor (Homo sapiens) (P06213 763-1382 limits assumed): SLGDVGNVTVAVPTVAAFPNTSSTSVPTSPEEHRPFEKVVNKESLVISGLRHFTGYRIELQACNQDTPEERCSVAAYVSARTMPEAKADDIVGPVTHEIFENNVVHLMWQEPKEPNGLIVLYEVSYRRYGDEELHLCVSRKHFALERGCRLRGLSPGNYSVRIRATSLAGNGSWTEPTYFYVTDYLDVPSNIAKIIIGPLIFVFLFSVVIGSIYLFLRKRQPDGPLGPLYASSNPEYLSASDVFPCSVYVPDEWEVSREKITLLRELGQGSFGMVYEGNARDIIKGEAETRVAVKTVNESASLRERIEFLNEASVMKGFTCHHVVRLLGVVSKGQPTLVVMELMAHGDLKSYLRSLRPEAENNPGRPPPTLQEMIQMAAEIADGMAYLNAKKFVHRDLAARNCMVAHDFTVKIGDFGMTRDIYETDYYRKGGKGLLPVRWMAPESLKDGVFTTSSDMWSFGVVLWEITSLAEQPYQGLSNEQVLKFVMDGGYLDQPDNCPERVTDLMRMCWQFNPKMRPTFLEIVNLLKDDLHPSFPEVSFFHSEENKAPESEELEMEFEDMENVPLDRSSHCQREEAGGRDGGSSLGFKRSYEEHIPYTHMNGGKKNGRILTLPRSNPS
# Chain of Tyrosine-protein kinase Blk (Homo sapiens) (P51451 2-505 limits assumed): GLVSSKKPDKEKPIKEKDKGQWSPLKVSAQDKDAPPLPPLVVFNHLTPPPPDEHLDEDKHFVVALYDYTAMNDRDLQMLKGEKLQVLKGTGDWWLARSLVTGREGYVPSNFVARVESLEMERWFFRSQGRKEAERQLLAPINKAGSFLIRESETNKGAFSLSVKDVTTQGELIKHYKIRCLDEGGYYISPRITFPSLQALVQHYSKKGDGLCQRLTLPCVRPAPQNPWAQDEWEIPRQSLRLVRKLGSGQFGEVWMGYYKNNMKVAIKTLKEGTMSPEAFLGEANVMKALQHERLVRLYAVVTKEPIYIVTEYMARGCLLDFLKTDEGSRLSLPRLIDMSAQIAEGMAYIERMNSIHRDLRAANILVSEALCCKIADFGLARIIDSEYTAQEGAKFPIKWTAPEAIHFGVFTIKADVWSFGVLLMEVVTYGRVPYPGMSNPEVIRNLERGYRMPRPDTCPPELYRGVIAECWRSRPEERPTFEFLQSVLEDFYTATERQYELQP
# Chain of Mitogen-activated protein kinase 11 (Homo sapiens) (Q15759 whole entry, the tested form may be a part): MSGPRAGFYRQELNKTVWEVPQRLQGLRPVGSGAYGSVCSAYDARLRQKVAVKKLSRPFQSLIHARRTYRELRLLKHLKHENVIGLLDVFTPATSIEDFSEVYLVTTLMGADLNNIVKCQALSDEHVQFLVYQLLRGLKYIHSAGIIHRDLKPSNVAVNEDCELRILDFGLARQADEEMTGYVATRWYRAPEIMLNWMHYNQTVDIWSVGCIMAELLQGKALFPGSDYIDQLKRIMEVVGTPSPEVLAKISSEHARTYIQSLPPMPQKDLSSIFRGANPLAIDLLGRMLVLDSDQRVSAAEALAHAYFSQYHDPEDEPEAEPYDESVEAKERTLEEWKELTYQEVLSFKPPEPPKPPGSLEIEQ
# Chain of FKBP12A/mTOR (Homo sapiens) (P62942 2-108 limits assumed, other chains not shown): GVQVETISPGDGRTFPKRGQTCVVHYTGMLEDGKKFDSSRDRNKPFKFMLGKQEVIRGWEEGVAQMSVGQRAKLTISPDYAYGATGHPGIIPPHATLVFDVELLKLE
smiles,measurement,setting,value
CS(=O)(=O)c1ccc(-n2nc(-c3cnc4[nH]ccc4c3)c3c(N)ncnc32)cc1,inhibition,[1],5%
same,inhibition,[2],17%
same,inhibition,[3],18%
same,inhibition,[4],12%
same,inhibition,[5],37%
same,inhibition,[6],14%
same,inhibition,[7],-8%
same,inhibition,[8],90%
same,inhibition,[9],7%
same,inhibition,[10],72%
same,inhibition,[11],-8%
same,inhibition,[12],22%
same,inhibition,[13],78%
same,inhibition,[14],1%
same,inhibition,[15],31%
same,inhibition,[16],65%
same,inhibition,[17],5%
same,AUC,Mus musculus,0.212 µM·h
same,inhibition,[18],-1%
same,inhibition,[19],13%
same,inhibition,[20],40%
same,"remaining at 0.5 h, 1 µM",[21],83%
same,inhibition,[22],-4%
same,inhibition,[23],27%
same,inhibition,[24],-3%
